# According to patent publication US10435399B2, “HDAC6 inhibitory heterocyclic compound” (TAKEDA PHARMACEUTICAL COMPANY LIMITED, priority 2017, dated 2019):
# Target: T1, HDAC6 enzyme (Homo sapiens, UniProt Q9UBN7)
# T1 construct: transducing full length HDAC6 gene into Sf-9 insect cells; GST; purchased SignalChem; host or cells: Sf-9 insect cells
# T1 sequence (Q9UBN7 1-1215): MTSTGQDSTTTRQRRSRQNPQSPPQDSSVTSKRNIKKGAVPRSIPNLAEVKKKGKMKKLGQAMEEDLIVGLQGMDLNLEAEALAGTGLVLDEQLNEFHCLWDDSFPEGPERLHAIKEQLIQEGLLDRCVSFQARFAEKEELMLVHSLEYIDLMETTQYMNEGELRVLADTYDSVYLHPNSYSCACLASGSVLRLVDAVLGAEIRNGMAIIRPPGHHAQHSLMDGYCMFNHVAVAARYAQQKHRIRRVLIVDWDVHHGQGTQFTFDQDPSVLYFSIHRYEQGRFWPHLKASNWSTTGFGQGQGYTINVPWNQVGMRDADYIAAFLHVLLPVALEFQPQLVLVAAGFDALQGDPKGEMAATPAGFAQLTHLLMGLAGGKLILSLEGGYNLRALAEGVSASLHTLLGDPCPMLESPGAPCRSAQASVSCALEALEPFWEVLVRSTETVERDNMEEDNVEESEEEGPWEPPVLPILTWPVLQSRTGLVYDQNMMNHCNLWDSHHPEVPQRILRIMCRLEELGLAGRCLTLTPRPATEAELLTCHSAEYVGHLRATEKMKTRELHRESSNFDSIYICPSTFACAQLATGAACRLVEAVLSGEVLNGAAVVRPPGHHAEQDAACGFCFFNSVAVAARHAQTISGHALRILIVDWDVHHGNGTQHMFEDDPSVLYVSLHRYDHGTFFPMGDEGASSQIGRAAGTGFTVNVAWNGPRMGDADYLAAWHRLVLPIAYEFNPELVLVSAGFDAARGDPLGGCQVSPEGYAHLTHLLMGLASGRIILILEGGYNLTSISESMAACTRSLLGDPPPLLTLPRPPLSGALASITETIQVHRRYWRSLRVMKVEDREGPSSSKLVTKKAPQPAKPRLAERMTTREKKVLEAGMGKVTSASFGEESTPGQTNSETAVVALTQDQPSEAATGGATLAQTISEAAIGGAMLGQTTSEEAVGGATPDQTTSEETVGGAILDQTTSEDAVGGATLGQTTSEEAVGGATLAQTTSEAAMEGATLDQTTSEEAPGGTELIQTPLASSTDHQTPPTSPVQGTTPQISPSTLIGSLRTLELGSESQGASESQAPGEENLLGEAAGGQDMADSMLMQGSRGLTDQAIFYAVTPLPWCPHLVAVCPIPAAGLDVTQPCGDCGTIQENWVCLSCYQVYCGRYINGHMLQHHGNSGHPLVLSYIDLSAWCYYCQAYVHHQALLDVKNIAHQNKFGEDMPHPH
# Experiment: HDAC6 enzyme inhibitory activity (HDAC-Glo I/II Assay kit)
# Assay type: biochemical
# Conditions: 10 μM; wells without enzyme = 100% inhibition; read-out: HDAC6 inhibitory rate (%) (10 μM)
# Outline: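 Sf-9-derived GST-purified full-length HDAC6 + cpd, 60 min RT, 24 mM Tris pH 7.5/0.6 mM glutathione/0.01% Tween-20; add HDAC-Glo substrate-developer, 20 min RT; luminescence. No-enzyme = 100% inhibition.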
row,inhibition at 10 µM [%],Structure (SMILES)
1,98,"N#Cc1cccc(C(=O)N[C@@H]2CCCC[C@H]2N2Cc3ncc(-c4nnc(C(F)F)o4)cc3C2=O)c1 [Example 225, 3-cyano-N-((1R,2R)-2-(3-(5-(difluoro-methyl)-1,3,4-oxadiazol-2-yl)-5-oxo-5,7-dihydro-6H-pyrrolo[3,4-b]pyridin-6-yl)cyclohexyl)benzamide]"
2,99,"O=C(N[C@@H]1CCCC[C@H]1N1Cc2ncc(-c3nnc(C(F)F)o3)cc2C1=O)c1cccc(C(F)(F)F)c1 [Example 226, N-((1R,2R)-2-(3-(5-(difluoromethyl)-1,3,4-oxadiazol-2-yl)-5-oxo-5,7-dihydro-6H-pyrrolo[3,4-b]pyridin-6-yl)cyclohexyl)-3-(trifluoromethyl)-benzamide]"
3,100,"O=C1c2cc(-c3nnc(C(F)F)o3)cc(F)c2CN1C[C@H]1COCCN1CC(F)(F)C(F)(F)F [Example 227, 6-(5-(difluoromethyl)-1.3,4-oxadiazol-2-yl)-4-fluoro-2-(((3S)-4-(2,2,3,3,3-pentafluoropropyl)morpholin-3-yl)-methyl)isoindolin-1-one]"
4,98,"O=C1c2cc(-c3nnc(C(F)F)o3)cc(F)c2CN1C[C@H]1COCCN1CC(F)(F)C(F)F [Example 228, 6-(5-(difluoromethyl)-1,3,4-oxadiazol-2-yl)-4-fluoro-2-(((3S)-4-(2,2,3,3-tetrafluoropropyl)morpholin-3-yl)-methyl)isoindolin-1-one]"
5,100,"N#Cc1ccccc1-c1ccccc1N1Cc2ccc(-c3nnc(C(F)F)o3)cc2C1=O [Example 230, 2′-(6-(5-(difluoromethyl)-1,3,4-oxadiazol-2-yl)-1-oxo-1,3-dihydro-2H-isoindol-2-yl)-biphenyl-2-carbonitrile]"
6,98,"N[C@@H]1CCCC[C@H]1N1Cc2ncc(-c3nnc(C(F)F)o3)cc2C1=O [Example 231, 6-((1R,2R)-2-aminocyclohexyl)-3-(5-(difluoromethyl)-1,3,4-oxadiazol-2-yl)-6,7-dihydro-5H-pyrrolo[3,4-b]pyridin-5-one]"
7,98,"O=C(O[C@@H]1CCCC[C@H]1N1Cc2ccc(-c3nnc(C(F)F)o3)cc2C1=O)N1CCC1 [Example 232, (1R,2R)-2-(6-(5-(difluoromethyl)-1,3,4-oxadiazol-2-yl)-1-oxo-1,3-dihydro-2H-isoindol-2-yl)-cyclohexyl azetidine-1-carboxylate]"
8,100,"O=C(O[C@@H]1CCCC[C@H]1N1Cc2ccc(-c3nnc(C(F)F)o3)cc2C1=O)N1CCCC1 [Example 233, (1R,2R)-2-(6-(5-(difluoromethyl)-1,3,4-oxadiazol-2-yl)-1-oxo-1,3-dihydro-2H-isoindol-2-yl)-cyclohexyl pyrrolidine-1-carboxylate]"
9,98,"O=C1c2cc(-c3nnc(C(F)F)o3)ccc2CN1CCOCc1ccccc1 [Example 234, 2-(2-(benzyloxy)ethyl)-6-(5-(difluoromethyl)-1,3,4-oxadiazol-2-yl)isoindolin-1-one]"
10,99,"O=C1c2cc(-c3nnc(C(F)F)o3)cnc2CN1[C@@H]1CCCC[C@H]1NC(=O)C1(C(F)F)CC1 [Example 235, 1-(difluoromethyl)-N-((1R,2R)-2-(3-(5-(difluoromethyl)-1,3,4-oxadiazol-2-yl)-5-oxo-5,7-dihydro-6H-pyrrolo[3,4-b]pyridin-6-yl)-cyclohexyl)cyclopropane-carboxamide]"
11,98,"O=C1c2cc(-c3nnc(C(F)F)o3)cc(F)c2CN1[C@@H]1CCCC[C@H]1NC(=O)C1(C(F)F)CC1 [Example 236, 1-(difluoromethyl)-N-((1R,2R)-2-(6-(5-(difluoromethyl)-1,3,4-oxadiazol-2-yl)-4-fluoro-1-oxo-1,3-dihydro-2H-isoindol-2-yl)-cyclohexyl)cyclopropanecarbox-amide]"
12,100,O=C1c2cc(-c3nnc(C(F)F)o3)cnc2CN1[C@@H]1CCCC[C@H]1NC(=O)C(F)(F)C1CC1 [Example 237]
13,100,"O=C1c2cc(-c3nnc(C(F)F)o3)ccc2CN1c1ccccc1-c1ccccn1 [Example 238, 6-(5-(difluoromethyl)-1,3,4-oxadiazol-2-yl)-2-(2-(pyridin-2-yl)phenyl)isoindolin-1-one]"
14,99,"O=C1c2ccc(-c3nnc(C(F)F)o3)cc2C(=O)N1C[C@H]1COCCN1S(=O)(=O)C1CC1 [Example 239, 2-(((3S)-4-(cyclopropylsulfonyl)-morpholin-3-yl)methyl)-5-(5-(difluoromethyl)-1,3,4-oxadiazol-2-yl)-1H-isoindole-1,3(2H)-dione]"
15,98,"O=C1c2cc(-c3nnc(C(F)F)o3)cnc2CN1c1ccccc1Br [Example 240, 6-(2-bromophenyl)-3-(5-(difluoro-methyl)-1,3,4-oxadiazol-2-yl)-6,7-dihydro-5H-pyrrolo[3,4-b]-pyridin-5-one]"
16,91,"O=C1c2cc(-c3nnc(C(F)F)o3)ccc2CN1c1ccc(Cl)cc1Br [Example 241, 2-(2-bromo-4-chlorophenyl)-6-(5-(difluoromethyl)-1,3,4-oxadiazol-2-yl)isoindolin-1-one]"
17,101,"O=C1c2cc(-c3nnc(C(F)F)o3)cc(F)c2CN1[C@@H]1CCCC[C@H]1NS(=O)(=O)C1CC1 [Example 242, N-((1R,2R)-2-(6-(5-(difluoro-methyl)-1,3,4-oxadiazol-2-yl)-4-fluoro-1-oxo-1,3-dihydro-2H-isoindol-2-yl)cyclohexyl)-cyclopropanesulfonamide]"
18,99,"N#Cc1cccc(-c2ccccc2N2Cc3ncc(-c4nnc(C(F)F)o4)cc3C2=O)c1 [Example 243, 2′-(3-(5-(difluoromethyl)-1,3,4-oxadiazol-2-yl)-5-oxo-5,7-dihydro-6H-pyrrolo[3,4-b]pyridin-6-yl)biphenyl-3-carbonitrile]"
19,101,O=C1c2cc(-c3nnc(C(F)F)o3)cc(F)c2CN1[C@@H]1CCCC[C@H]1NS(=O)(=O)CC(F)(F)F [Example 244]
20,101,"O=C1c2cc(-c3nnc(C(F)F)o3)ccc2CN1[C@@H]1CCCC[C@H]1NS(=O)(=O)CC(F)(F)F [Example 245, N-((1R,2R)-2-(6-(5-(difluoro-methyl)-1,3,4-oxadiazol-2-yl)-1-oxo-1,3-dihydro-2H-isoindol-2-yl)cyclohexyl)-2,2,2-trifluoro-ethanesulfonamide]"
21,100,"O=C1c2cc(-c3nnc(C(F)F)o3)ccc2CN1[C@@H]1CCCC[C@H]1NS(=O)(=O)C1CC1 [Example 246, N-((1R,2R)-2-(6-(5-(difluoro-methyl)-1,3,4-oxadiazol-2-yl)-1-oxo-1,3-dihydro-2H-isoindol-2-yl)cyclohexyl)cyclopropane-sulfonamide]"
22,94,"O=C1c2cc(-c3nnc(C(F)F)o3)ccc2CN1c1ccc(F)cc1Br [Example 247, 2-(2-bromo-4-fluorophenyl)-6-(5-(difluoromethyl)-1,3,4-oxadiazol-2-yl)isoindolin-1-one]"

# Same assay, conditions: read-out: HDAC6 inhibitory rate (%) (10 μM)
row,Structure (SMILES),inhibition at 10 µM [%]
1,"O=C1c2cc(-c3nnc(C(F)F)o3)cc(F)c2CN1C[C@H]1COCCN1CC(F)(F)C(F)(F)C(F)(F)F [Example 229, 6-(5-(difluoromethyl)-1,3,4-oxadiazol-2-yl)-4-fluoro-2-(((3S)-4-(2,2,3,3,4,4,4-heptafluorobutyl)-morpholin-3-yl)methyl)isoindolin-1-one]",100
